“Also recorded” adds a separate entry of the source.
What was measured:
all three human trypsins = tested on: all three human trypsins; design: method as in PMID 28463992; settings: equally inhibits all three human trypsins; cited from earlier work
trypsin-3 [1] = target: T1, trypsin-3 (Homo sapiens, UniProt P35030); test: Serine protease inhibition, chromogenic substrate S-2222; format: biochemical; settings: read-out: IC50, trypsin-3; 30 min preincubation, substrate S-2222, n = 3
T1 construct: made in house; host or cells: Escherichia coli
T1 sequence (P35030 81-304 limits assumed): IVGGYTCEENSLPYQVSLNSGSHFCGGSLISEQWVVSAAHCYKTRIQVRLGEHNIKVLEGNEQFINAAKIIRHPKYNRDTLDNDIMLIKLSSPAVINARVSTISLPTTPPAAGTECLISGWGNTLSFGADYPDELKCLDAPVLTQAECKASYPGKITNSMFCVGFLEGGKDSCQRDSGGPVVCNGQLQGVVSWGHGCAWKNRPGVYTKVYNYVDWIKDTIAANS
Experimental: (§1) Recombinant trypsinogens-1, -2, and -3 were produced inEscherichia coliand activated to trypsin-1, -2, and -3 as described previously.[45] The enzyme inhibitory activity of suomilide was determined in 96-well plates by adding 10 μL of diluted suomilide (0.21–3400 nM, diluted in ultra-purified water, containing up to 0.027% DMSO), 15 μL of 0.1% bovine serum albumin in 50 mM Tris-buffer saline (BSA/TBS), and 25 μL of each trypsin (1.88 nM). 10 μL of ultra-purified water was used as a control. […] Preincubation of suomilide with trypsin isoenzymes prior to the addition of the substrate was required for maximal inhibition (data not shown). Thus, suomilide was preincubated with trypsins at room temperature for 30 min before the addition of 50 μL of 0.2 mM chromogenic substrate S-2222 (ChromogeniX) in ultra-purified water. The change of absorbance at 405 nm was followed for 15 min (VICTOR X4 multilabel plate reader, PerkinElmer). The experiment was performed three times, each with two replicates (n = 3). The absorbance change during the phase of the substrate reaction in which the absorbance of the control reaction increased linearly over time was determined. The same experiment was performed with plasmin (Sigma) (15 nM) with chromogenic substrate S-2251 (ChromogeniX); plasma KLK (Sigma) (20 nM) with substrate ChromogeniX S-2302 (ChromogeniX); Factor Xa (Sigma) (3 nM) with substrate S-2222; and thrombin (Sigma) (1 nM) with substrate S-2238 (ChromogeniX). Except for urokinase from human kidney cells (Sigma) (125 IU), 15 μL of BSA/TBS with 0.9% NaCl was used. Nine 4-fold dilutions of suomilide were prepared, with 12.5 μM being the highest final concentration. The IC50 values were estimated using Quest Graph, and the standard error was calculated using MS Excel 2013.

[2] = target: T2, recombinant human trypsin-2 (Homo sapiens, UniProt P07478); test: as above; format: biochemical; settings: read-out: IC50, trypsin-2; 30 min preincubation, substrate S-2222, n = 3
T2 construct: made in house; host or cells: Escherichia coli
T2 sequence (P07478 24-247): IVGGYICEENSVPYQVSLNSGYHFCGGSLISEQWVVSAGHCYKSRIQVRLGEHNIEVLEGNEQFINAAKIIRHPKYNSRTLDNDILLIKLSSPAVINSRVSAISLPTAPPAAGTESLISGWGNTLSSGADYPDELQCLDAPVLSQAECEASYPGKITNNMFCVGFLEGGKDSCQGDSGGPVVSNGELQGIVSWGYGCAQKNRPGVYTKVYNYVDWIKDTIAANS
Experimental: as §1

trypsin-1 [3] = target: T3, trypsin-1 (Homo sapiens, UniProt P07477); test: as above; format: biochemical; settings: read-out: IC50, trypsin-1; 30 min preincubation, substrate S-2222, n = 3
T3 construct: made in house; host or cells: Escherichia coli
Experimental: as §1

human Factor Xa = target: T4, human Factor Xa (Homo sapiens, UniProt P00742); test: as above; format: biochemical; settings: read-out: IC50, human Factor Xa
T4 construct: purchased Sigma
T4 sequence (P00742 235-488 limits assumed): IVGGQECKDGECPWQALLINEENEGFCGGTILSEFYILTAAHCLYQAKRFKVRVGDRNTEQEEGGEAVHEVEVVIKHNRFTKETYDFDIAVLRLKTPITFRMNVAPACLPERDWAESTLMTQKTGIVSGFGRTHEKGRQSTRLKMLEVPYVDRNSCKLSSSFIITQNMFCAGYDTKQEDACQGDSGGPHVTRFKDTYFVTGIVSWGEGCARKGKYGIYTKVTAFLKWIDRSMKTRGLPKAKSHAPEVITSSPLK
T4 sequence (P00742 41-179 partner limits assumed): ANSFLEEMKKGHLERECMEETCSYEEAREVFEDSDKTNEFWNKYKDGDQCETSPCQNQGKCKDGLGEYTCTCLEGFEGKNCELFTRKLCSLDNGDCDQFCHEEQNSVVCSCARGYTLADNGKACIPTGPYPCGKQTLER
Experimental: as §1

human plasmin = target: T5, human plasmin (Homo sapiens, UniProt P00747); test: Serine protease inhibition, chromogenic substrate S-2251; format: biochemical; settings: read-out: IC50, human plasmin
T5 construct: purchased Sigma
T5 sequence (P00747 581-810 limits assumed): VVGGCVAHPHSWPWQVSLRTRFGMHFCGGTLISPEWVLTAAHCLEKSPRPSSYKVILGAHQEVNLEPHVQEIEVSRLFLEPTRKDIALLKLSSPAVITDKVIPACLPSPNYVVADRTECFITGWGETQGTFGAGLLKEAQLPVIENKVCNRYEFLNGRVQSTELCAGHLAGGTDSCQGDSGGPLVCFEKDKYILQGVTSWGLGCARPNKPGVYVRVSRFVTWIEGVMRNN
T5 sequence (P00747 97-580 partner limits assumed): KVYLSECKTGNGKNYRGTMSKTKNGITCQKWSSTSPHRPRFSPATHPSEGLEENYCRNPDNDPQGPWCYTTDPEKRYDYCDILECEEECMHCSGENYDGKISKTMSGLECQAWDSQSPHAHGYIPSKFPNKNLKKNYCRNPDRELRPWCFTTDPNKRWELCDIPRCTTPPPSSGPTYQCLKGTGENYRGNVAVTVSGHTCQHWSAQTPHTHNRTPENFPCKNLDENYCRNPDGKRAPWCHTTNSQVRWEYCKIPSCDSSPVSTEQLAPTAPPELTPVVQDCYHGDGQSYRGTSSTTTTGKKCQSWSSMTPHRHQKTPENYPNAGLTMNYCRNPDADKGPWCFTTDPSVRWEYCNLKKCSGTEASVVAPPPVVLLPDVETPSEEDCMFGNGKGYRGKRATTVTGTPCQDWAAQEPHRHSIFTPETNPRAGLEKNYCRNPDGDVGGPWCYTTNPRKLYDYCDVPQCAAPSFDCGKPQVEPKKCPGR
Experimental: as §1, with “The same experiment was performed with plasmin (Sigma) (15 nM) with chromogenic substrate S-2251 (ChromogeniX); plasma KLK (Sigma) (20 nM) with substrate ChromogeniX S-2302 (ChromogeniX); Factor Xa (Sigma) (3 nM) with substrate S-2222; and thrombin (Sigma) (1 nM) with substrate S-2238 (ChromogeniX). Except for urokinase from human kidney cells (Sigma) (125 IU), 15 μL of BSA/TBS with 0.9% NaCl was used. Nine 4-fold dilutions of suomilide were prepared, with 12.5 μM being the highest final concentration.” left out

[4] = tested on: PC-3M prostate cancer cells; test: Cell proliferation assay (CCK-8); format: cell-based, human; settings: 3.3 μM, 3 days, cells on plastic surface
Experimental: (§2) PC-3M prostate cancer cells[46] were cultured in Ham’s F12 Nutrient Mix with GlutaMAX (Gibco), supplemented with 10% fetal calf serum (FCS), 100 IU mL^–1 penicillin, 100 μg mL^–1 streptomycin, and 0.15% sodium bicarbonate at 37 °C in a humidified, CO2-controlled (5%) incubator. For the invasion assay, PC-3M cells (1.45 × 10^5) in a serum-free medium containing 0 or 3.3 μM suomilide were added into polycarbonate membrane Transwell inserts with 8.0 μm pore size (Thermo Fisher) covered with 100 μL of the phenol red-free Matrigel basement membrane matrix (Corning) diluted 1:30 with phosphate-buffered saline. The inserts were placed into a 24-well plate containing 750 μL of the culture medium with 10% FCS and incubated for 4 days at 37 °C in a humidified, CO2-controlled (5%) incubator. Matrigel and the noninvasive cells were removed using cotton swabs, and the membranes were stained with 0.09% crystal violet for 10 min. The experiment was performed twice, both with four replicates (n = 2). The invasion was quantitated from microscopic images (three panels from each of the replicates) using Fiji ImageJ. […] After 3 days, 10 μL/well CCK-8 solution (Cell Counting Kit-8, Dojindo) was added, and absorbance at 450 nm was measured after 1.5 h incubation. […]

trypsin-3 [5] = target: T1, trypsin-3; test: Surface plasmon resonance (Biacore) kinetic analysis; format: binding; settings: SPR
Experimental: (§3) The binding of suomilide to trypsin-1 and -3 was analyzed with surface plasmon resonance in Biacore 2000 instrumentation (Cytiva). […] The binding was analyzed using Tris-buffered saline (pH 7.4) containing 0.01% DMSO as the running buffer and a flow rate of 30 μL min^–1. The kinetics of the suomilide interaction with the trypsins were measured by varying suomilide concentrations from 250 to 4000 nM with a contact time of 5 min and a dissociation phase of 20 min. After the completion of the dissociation phase, the flow cells were regenerated with 10 mM Glycine, pH 1.7. The data were evaluated by first subtracting the sensorgrams obtained from the trypsin-3 mutant control flow cell from those obtained from the flow cells containing trypsin-1 or -3 for each suomilide concentration separately and overlaying the resulting sensorgrams for each ligand. Association and dissociation rate constants were obtained by the Langmuir global fit model (BiaEvaluation Software, Cytiva). The residence time was calculated as a reciprocal of the […].

trypsin-1 [6] = target: T3, trypsin-1; test: as above; format: binding; settings: SPR
Experimental: as §3

thrombin = tested on: thrombin; design: method as in doi:10.1016/s0040-4039(97)01193-3; settings: cited from earlier work
[7] = tested on: unspecified but most likely non-human trypsin isoenzyme; design: method as in doi:10.1016/s0040-4039(97)01193-3; settings: cited from earlier work
human urokinase = target: T6, human urokinase (Homo sapiens, UniProt P00749); test: Serine protease inhibition, urokinase from human kidney cells; format: biochemical; settings: read-out: IC50, human urokinase
T6 construct: purchased Sigma; host or cells: human kidney cells
Experimental: as §1, with “The same experiment was performed with plasmin (Sigma) (15 nM) with chromogenic substrate S-2251 (ChromogeniX); plasma KLK (Sigma) (20 nM) with substrate ChromogeniX S-2302 (ChromogeniX); Factor Xa (Sigma) (3 nM) with substrate S-2222; and thrombin (Sigma) (1 nM) with substrate S-2238 (ChromogeniX). Except for urokinase from human kidney cells (Sigma) (125 IU), 15 μL of BSA/TBS with 0.9% NaCl was used. Nine 4-fold dilutions of suomilide were prepared, with 12.5 μM being the highest final concentration.” left out

human plasma kallikrein = target: T7, human plasma kallikrein (Homo sapiens, UniProt P03952); test: Serine protease inhibition, chromogenic substrate S-2302; format: biochemical; settings: read-out: IC50, human plasma kallikrein
T7 construct: purchased Sigma
T7 sequence (P03952 391-638 limits assumed): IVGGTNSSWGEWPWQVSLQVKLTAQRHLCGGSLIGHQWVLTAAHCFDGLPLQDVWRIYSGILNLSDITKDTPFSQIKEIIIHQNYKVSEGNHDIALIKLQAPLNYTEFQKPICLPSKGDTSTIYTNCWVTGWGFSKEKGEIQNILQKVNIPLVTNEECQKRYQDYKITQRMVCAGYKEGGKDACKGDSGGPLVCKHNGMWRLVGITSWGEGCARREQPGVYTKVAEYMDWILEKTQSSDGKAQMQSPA
T7 sequence (P03952 20-390 partner limits assumed): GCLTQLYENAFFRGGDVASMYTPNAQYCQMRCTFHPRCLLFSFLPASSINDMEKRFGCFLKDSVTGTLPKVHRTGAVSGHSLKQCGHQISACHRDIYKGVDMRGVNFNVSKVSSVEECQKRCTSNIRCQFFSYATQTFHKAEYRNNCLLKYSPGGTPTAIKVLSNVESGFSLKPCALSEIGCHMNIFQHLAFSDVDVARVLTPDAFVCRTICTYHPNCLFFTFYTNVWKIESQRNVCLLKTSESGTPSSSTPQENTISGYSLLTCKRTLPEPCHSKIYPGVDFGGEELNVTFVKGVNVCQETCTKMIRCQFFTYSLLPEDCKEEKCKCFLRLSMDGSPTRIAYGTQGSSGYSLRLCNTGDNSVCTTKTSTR
Experimental: as §1, with “The same experiment was performed with plasmin (Sigma) (15 nM) with chromogenic substrate S-2251 (ChromogeniX); plasma KLK (Sigma) (20 nM) with substrate ChromogeniX S-2302 (ChromogeniX); Factor Xa (Sigma) (3 nM) with substrate S-2222; and thrombin (Sigma) (1 nM) with substrate S-2238 (ChromogeniX). Except for urokinase from human kidney cells (Sigma) (125 IU), 15 μL of BSA/TBS with 0.9% NaCl was used. Nine 4-fold dilutions of suomilide were prepared, with 12.5 μM being the highest final concentration.” left out

[8] = tested on: PC-3M prostate cancer cells; test: Transwell cell invasion assay through Matrigel; format: cell-based, human; settings: 3.3 μM, 4 days, Transwell with Matrigel
Experimental: as §2

human thrombin = target: T8, human thrombin (Homo sapiens, UniProt P00734); test: Serine protease inhibition, chromogenic substrate S-2238; format: biochemical; settings: read-out: IC50, human thrombin, highest final concentration 12.5 μM
T8 construct: purchased Sigma
Experimental: as §1, with “The same experiment was performed with plasmin (Sigma) (15 nM) with chromogenic substrate S-2251 (ChromogeniX); plasma KLK (Sigma) (20 nM) with substrate ChromogeniX S-2302 (ChromogeniX); Factor Xa (Sigma) (3 nM) with substrate S-2222; and thrombin (Sigma) (1 nM) with substrate S-2238 (ChromogeniX). Except for urokinase from human kidney cells (Sigma) (125 IU), 15 μL of BSA/TBS with 0.9% NaCl was used. Nine 4-fold dilutions of suomilide were prepared, with 12.5 μM being the highest final concentration.” left out

plasmin = tested on: plasmin; design: method as in doi:10.1016/s0040-4039(97)01193-3; settings: cited from earlier work

N=C(N)c1ccc(/N=N/Nc2ccc(C(=N)N)cc2)cc1 [diminazene]
inhibition of human trypsins (concentration range) (all three human trypsins): micromolar concentrations

CCCCCC(=O)OCC1OC(OC2CC3C(O)C4(C2)OC(=O)NC4C(C(=O)NCCC2=CCN(C(=N)N)C2)N3C(=O)C(NC(=O)C(COS(=O)(=O)O)OC)C(C)CC)C(OC(=O)CCCCC)C(O)C1O (stereo not drawn) [suomilide]
IC50 (trypsin-3 [1]): 11.5 nM | IC50 [2]: 4.7 nM | IC50 (trypsin-1 [3]): 104 nM | IC50 (human Factor Xa): 114 ± 2 nM | IC50 (human plasmin): 7.6 ± 2.3 nM | effect on PC-3M cell proliferation [4]: without affecting cell proliferation; also recorded: did not affect | kon (trypsin-3 [5]; immobilized trypsin-3, Langmuir global fit, read-out: ka (association rate constant), trypsin-3): 12000 M⁻¹ s⁻¹ | koff (trypsin-3 [5]; immobilized trypsin-3, Langmuir global fit, read-out: kd (dissociation rate constant), trypsin-3): 0.00029 s⁻¹ | residence time (trypsin-3 [5]; calculated as reciprocal of the dissociation constant, read-out: residence time (τ), trypsin-3): 57 min | kon (trypsin-1 [6]; immobilized trypsin-1, Langmuir global fit, read-out: ka (association rate constant), trypsin-1): 33000 M⁻¹ s⁻¹ | koff (trypsin-1 [6]; immobilized trypsin-1, Langmuir global fit, read-out: kd (dissociation rate constant), trypsin-1): 0.011 s⁻¹ | residence time (trypsin-1 [6]; calculated as reciprocal of the dissociation constant, read-out: residence time (τ), trypsin-1): 1.5 min | inhibition of thrombin (concentration range) (thrombin): low micromolar concentrations | inhibition of trypsin (concentration range) [7]: low micromolar concentrations | IC50 ([7]; unspecified, most likely non-human trypsin): 1800 nM | IC50 (human urokinase): 7100 ± 1360 nM | IC50 (human plasma kallikrein): 82 ± 24 nM | effect on PC-3M cell invasion [8]: inhibited the invasion; also recorded: significantly inhibited | IC50 (human thrombin): > 12500 nM | inhibition of plasmin (concentration range) (plasmin): low micromolar concentrations

— PMC8609519, “Potent Inhibitor of Human Trypsins from the Aeruginosin Family of Natural Products” (ACS Chemical Biology, 2021)
